For experiment [1], the system named is H-125 or OCI-AML3 cells. As to the kind of experiment: Cell viability (MTS) assay, simultaneous P15 peptide + cytostatic drug, 72 hours. The class given is cell-based, human. As to the method:
Finally, the cell viability and the IC50 values were determined as above described in this invention.

For experiment [2], the system named is H-125 cells. Description: Cell viability (MTS) assay, sequential: P15 pre-treatment, then cytostatic drug.
In experiment [3] the test system is SW948 cells. Description: Cell viability (MTS) assay, P15 pre-treatment on intrinsic drug-refractory tumor cells. The class given is cell-based, human.
Experiment [4] relates to SW948 cells. Description: In vivo chemosensibilization, SW948 tumors in nude mice, sequential administration. The conditions noted are these: P15 0.5 mg/kg/day i.p. 5 days, then cytostatic 5 mg/kg/day 5 days, FIG. 2A-2C. The method, then:
The animal model used in this invention was based on the implantation of human tumors in nude mice (Nu/Nu, BalBC). Briefly, 5×10^6 H-125 or OCI-AML3 cells were suspended in Phosphate Buffer Solution (PBS) and inoculated subcutaneously. After tumor debut (approx. 30 mm^3), treatment was started using the pharmaceutical combination described in this invention. To evaluate the antitumor effect of the pharmaceutical combination, the tumor mass volume was measured and the respective volume was calculated using the formule: V=widght^2×lenght/2.
For this purpose, 5×10^6 SW948 cells were implanted in nude mice as previously described in this invention. After tumor debut the pharmaceutical combination was sequentially administered as follow: First, the P15 peptide ingredient was administered intraperitoneal at 0.5 mg/kg/day during 5 days. Subsequently, cisplatin (FIG. 2A), Paclitaxel (FIG. 2B) and doxorubicin (FIG. 2C) were administered at 5 mg/kg/day during further 5 days. […] These findings also provide the evidences that the pharmaceutical combination in this invention is able to bypass the commonly observed intrinsic tumor resistance when the ingredients are sequentially administered.

Experiment [5] has as its system H-125 or OCI-AML3 tumor cells. Description: Cancer animal model, human tumor xenografted in nude mice, simultaneous administration. The class given is in vivo, nude mice (Nu/Nu, BalBC). Particulars: for interaction with P15, antitumor effect in vivo: administered along with P15, FIG. 4; for antitumor effect (tumor volume): cytostatic 1 mg/kg/day i.p. concomitantly with P15 0.5 mg/kg/day i.p., 5 days, FIG. 1A-1C. The method, then:
(§1) The animal model used in this invention was based on the implantation of human tumors in nude mice (Nu/Nu, BalBC). […] After tumor debut (approx. 30 mm^3), treatment was started using the pharmaceutical combination described in this invention. To evaluate the antitumor effect of the pharmaceutical combination, the tumor mass volume was measured and the respective volume was calculated using the formule: V=widght^2×lenght/2.
(§2) After tumor debut, the ingredients of the pharmaceutical combination were administered as follow: The P15 peptide in saline solution was administered intraperitoneal at 0.5 mg/kg/day during 5 days. Concomitantly, intraperitoneal injection of cisplatin (FIG. 1A), or cyclophosphamide (FIG. 1B) or Mitomycin (FIG. 1C) were performed at 1 mg/kg/day in the same frequency. The cytostatic drugs are also solved in saline solution. Tumor volume was registered as described above in this invention.
(In general: A xenograft is tissue or cells of one species grown in another, often human tumour cells in immunodeficient mice.)

The test system of experiment [6] is OCI-AML3 cells. As to the kind of experiment: Animal model of AML, P15 + anti-leukemic chemotherapeutics. The conditions noted are these: combination with P15, animal model of AML; FIG. 3. The format is in vivo, nude mice (Nu/Nu, BalBC). The method, then: as §1, §2
Where [7] appears, read: H-125 or OCI-AML3 cells, 72 hours, simultaneous P15 50 μM, read-out: IC50, Cytostatic drug + P15 (50 μM).
The mark [8] stands for this setting: Homo sapiens, H-125 or OCI-AML3 cells, 72 hours, no P15, read-out: IC50, Cytostatic drug alone.
Setting [9] is: read-out: IC50, Cytostatic drug + P15 (10 μM), H-125 or OCI-AML3 cells, 72 hours, simultaneous P15 10 μM.
The mark [10] stands for this setting: Homo sapiens, NCI-H125, read-out: IC50, Cytostatic drug alone.
Setting [11] is: Homo sapiens, P15 pre-treatment, read-out: IC50, Cytostatic drug + P15 pre-treatment.
Where [12] appears, read: Homo sapiens, no P15 pre-treatment, read-out: IC50, Cytostatic drug alone.
Where [13] appears, read: H-125 or OCI-AML3 cells, 72 hours, no P15, read-out: IC50, Cytostatic drug alone.
The mark [14] stands for this setting: read-out: IC50, Cytostatic drug alone, H-125 cells, 72 hours, no P15 pre-treatment.

The values below come from patent US9278118B2, “Pharmaceutical combination for the treatment and/or chemosensibilization of refractory tumors to anticancer drugs” (Centro de Ingenieria Genetica Y Biotecnologia, priority 2006, dated 2016).

In general, IC50 refers to the midpoint of a concentration-inhibition curve.

Like-named read-outs stand apart in the source and are kept apart here.

`CC(C)C[C@H](NC(=O)[C@H](Cc1ccccc1)NC(=O)c1cnccn1)B(O)O` [Velcade, Bortezomib]: the IC50 in experiment [1] (setting [7]) is 0.7 µM; in experiment [1] (setting [8]), 2 µM; in experiment [1] (setting [9]), 1.2 µM; in experiment [2] (setting [10]), 2 µM.
On to `CC[C@]1(O)C[C@H]2CN(CCc3c([nH]c4ccccc34)[C@@](C(=O)OC)(c3cc4c(cc3OC)N(C=O)[C@H]3[C@@](O)(C(=O)OC)[C@H](OC(C)=O)[C@]5(CC)C=CCN6CC[C@]43[C@@H]65)C2)C1` [Vincristin, vincristin], for which the IC50 is 0.008 µM in experiment [1] (setting [7]), 0.856 µM in experiment [1] (setting [8]), 0.1 µM in experiment [1] (setting [9]) and 0.856 µM in experiment [2] (setting [10]).
Take `COc1cccc2c1C(=O)c1c(O)c3c(c(O)c1C2=O)C[C@@](O)(C(=O)CO)C[C@@H]3O[C@H]1C[C@H](N)[C@H](O)[C@H](C)O1` [Doxorubicin, doxorubicin]: the IC50 is 0.076 µM in experiment [1] (setting [7]); 0.423 µM in experiment [1] (setting [8]); 0.2 µM in experiment [1] (setting [9]); 320 µM in experiment [3] (setting [11]); not below 1000 µM in experiment [3] (setting [12]); 0.423 µM in experiment [2] (setting [10]). In addition, the “chemosensibilization in vivo (tumor response to cytostatic)” value (from here on “chemosensibilization in vivo”) in experiment [4] is given as “revert the chemorefractory phenotype”.
`O=c1[nH]cc(F)c(=O)[nH]1` [5-Fluorouracil, 5-fluorouracil]: the IC50 in experiment [1] (setting [7]) worked out at 0.06 µM; in experiment [1] (setting [8]), 1.2 µM; in experiment [1] (setting [9]), 0.42 µM; in experiment [2] (setting [10]) it was 1.2 µM.
In the case of `CC(=O)O[C@H]1C(=O)[C@@]2(C)[C@H]([C@H](OC(=O)c3ccccc3)[C@]3(O)C[C@H](OC(=O)[C@H](O)[C@@H](NC(=O)c4ccccc4)c4ccccc4)C(C)=C1C3(C)C)[C@]1(OC(C)=O)CO[C@@H]1C[C@@H]2O` [Paclitaxel, paclitaxel], the IC50 in experiment [1] (setting [7]) was 0.003 µM; in experiment [1] (setting [8]), 0.017 µM; in experiment [1] (setting [9]), 0.008 µM; in experiment [3] (setting [11]) it was 97 µM; in experiment [3] (setting [12]), not below 1000 µM; in experiment [2] (setting [10]), 0.017 µM. Moreover, the “chemosensibilization in vivo” value in experiment [4] was “revert the chemorefractory phenotype”.
On to `COc1cc([C@@H]2c3cc4c(cc3[C@@H](O[C@@H]3O[C@@H]5CO[C@@H](C)O[C@H]5[C@H](O)[C@H]3O)[C@H]3COC(=O)[C@H]23)OCO4)cc(OC)c1O` [Etoposide, etoposide], for which the IC50 in experiment [1] (setting [7]) was 0.02 µM; in experiment [1] (setting [8]), 0.78 µM; in experiment [1] (setting [9]), 0.06 µM; in experiment [2] (setting [10]) it was 0.561 µM. The “interaction with P15, antitumor effect in vivo” value (shortened to “interaction with P15”) in experiment [5] is “synergistic interactions”.
Turning to `Nc1ccn([C@@H]2O[C@H](CO)[C@@H](O)[C@@H]2O)c(=O)n1` [Cytarabine (AraC), cytarabine], the IC50 in experiment [1] (setting [7]) came to 0.068 µM; in experiment [1] (setting [8]), 1 µM; in experiment [1] (setting [9]) it was 0.11 µM; in experiment [2] (setting [10]) it was 0.98 µM. In addition, the “interaction with P15” value in experiment [6] is “great synergistic interaction”.
The matching figures for `O=C1c2c(O)ccc(O)c2C(=O)c2c(NCCNCCO)ccc(NCCNCCO)c21` [Mitoxantrone, mitoxantrone]: 0.032 µM, 0.754 µM, 0.064 µM, 0.7 µM and “great synergistic interaction”.
In the case of `O=P1(N(CCCl)CCCl)NCCCO1` (stereo not drawn) [Cyclophosphamide, cyclophosphamide], the IC50 in experiment [1] (Homo sapiens, 72 h, read-out: IC50, Cytostatic drug alone) worked out at 2.4 µM; in experiment [1] (read-out: IC50, Cytostatic drug + P15 (10 μM)), 1 µM; in experiment [1] (read-out: IC50, Cytostatic drug + P15 (50 μM)), 0.085 µM; in experiment [2] (setting [10]), 2.4 µM; in experiment [2] (read-out: IC50, Cytostatic drug + P15 pre-treatment) it was 0.1 µM. Also, the “antitumor effect (tumor volume)” value in experiment [5] was “complete tumor regression”.
Regarding `Nc1nc(F)nc2c1ncn2[C@@H]1O[C@H](CO)[C@@H](O)[C@@H]1O` [Fludarabine, fludarabine], the IC50 was found to be 0.05 µM in experiment [1] (setting [7]), 0.87 µM in experiment [1] (setting [8]), 0.096 µM in experiment [1] (setting [9]) and 0.865 µM in experiment [2] (setting [10]).
Take `N.N.O=C([O-])C1(C(=O)[O-])CCC1.[Pt+2]` [Carboplatin, carboplatin]: the IC50 in experiment [1] (setting [13]) came out at 0.65 µM; in experiment [1] (setting [7]), 0.036 µM; in experiment [1] (setting [9]), 0.07 µM; in experiment [2] (setting [14]) it was 0.45 µM. In experiment [5], the “interaction with P15” value is recorded as “synergistic interactions”.
For `CO[C@@]12[C@H](COC(N)=O)C3=C(C(=O)C(C)=C(N)C3=O)N1C[C@@H]1N[C@@H]12` [Mitomycin C, mitomycin C], the IC50 in experiment [1] (setting [7]) was 0.009 µM; in experiment [1] (setting [8]) it was 0.994 µM; in experiment [1] (setting [9]) it was 0.093 µM; in experiment [2] (setting [10]) it was 0.994 µM. Besides, the “antitumor effect (tumor volume)” value in experiment [5] is “complete tumor regression”.
Take `N.N.[Cl][Pt][Cl]` [Cisplatin, cisplatin]: the IC50 in experiment [1] (setting [13]) is 0.72 µM; in experiment [1] (setting [7]) it was 0.04 µM; in experiment [1] (setting [9]), 0.53 µM; in experiment [3] (P15 pre-treatment, read-out: IC50, Cytostatic drug + P15 pre-treatment) it was 120 µM; in experiment [3] (no P15 pre-treatment, read-out: IC50, Cytostatic drug alone), not below 1000 µM; in experiment [2] (setting [14]) it was 0.72 µM. In experiment [5], the “antitumor effect (tumor volume)” value is listed as “complete tumor regression”. Also, the “chemosensibilization in vivo” value in experiment [4] is listed as “revert the chemorefractory phenotype”.
